This is an account of results in patent US10246429B2, “Vinyl fluoride cyclopropyl fused thiazin-2-amine compounds as beta-secretase inhibitors and methods of use” (AMGEN INC., priority 2015, dated 2019).

Assay [1] addresses T1, BACE1 (Homo sapiens (Human), UniProt P56817). Kind of assay: In vitro enzymatic BACE1 FRET assay. The assay is classed as biochemical. As to conditions: read-out: IC50 IP (μM) BACE1 Enzyme.
Target sequence in this assay (P56817 46-501): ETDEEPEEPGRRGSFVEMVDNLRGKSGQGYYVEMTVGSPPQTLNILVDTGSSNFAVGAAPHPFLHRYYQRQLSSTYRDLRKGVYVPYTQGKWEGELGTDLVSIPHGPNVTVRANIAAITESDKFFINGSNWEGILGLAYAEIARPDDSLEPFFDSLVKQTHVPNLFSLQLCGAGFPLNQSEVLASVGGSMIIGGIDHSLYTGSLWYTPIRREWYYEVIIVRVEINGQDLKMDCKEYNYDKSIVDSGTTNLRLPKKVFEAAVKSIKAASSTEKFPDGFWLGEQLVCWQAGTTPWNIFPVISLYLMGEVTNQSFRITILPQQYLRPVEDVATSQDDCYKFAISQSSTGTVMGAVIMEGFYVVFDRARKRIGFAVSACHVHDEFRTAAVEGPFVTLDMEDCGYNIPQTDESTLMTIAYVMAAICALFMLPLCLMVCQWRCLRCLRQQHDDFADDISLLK
Source text: (§1) In Vitro Enzymatic BACE1 and BACE2 FRET (Fluorescence Resonance Energy Transfer) Assays (Enzyme Assay Data in Table 1)
The target of assay [2] is T1, BACE1. Briefly: BACE1 cell assay. The assay is classed as cell-based.
Target sequence in this assay (P56817 46-501, species assumed): as the sequence (P56817 46-501) above
Assay [3] has as its target BACE2 (Homo sapiens (Human), UniProt Q9Y5Z0). Kind of assay: In vitro enzymatic BACE2 FRET assay. The assay is classed as biochemical. The conditions noted are these: read-out: IC50 IP (μM) BACE2 Enzyme.
Source text: as §1
Assay [4] concerns the target Cathepsin D (CatD) (Homo sapiens (Human), UniProt P07339). Briefly: CatD assay. The format is biochemical. The conditions noted are these: read-out: IC50 IP (μM) CatD.
Where [5] appears, read: read-out: IC50 IP (μM) BACE1 Cell.

Cathepsin D (CatD), sequence (P07339 65-412, species assumed): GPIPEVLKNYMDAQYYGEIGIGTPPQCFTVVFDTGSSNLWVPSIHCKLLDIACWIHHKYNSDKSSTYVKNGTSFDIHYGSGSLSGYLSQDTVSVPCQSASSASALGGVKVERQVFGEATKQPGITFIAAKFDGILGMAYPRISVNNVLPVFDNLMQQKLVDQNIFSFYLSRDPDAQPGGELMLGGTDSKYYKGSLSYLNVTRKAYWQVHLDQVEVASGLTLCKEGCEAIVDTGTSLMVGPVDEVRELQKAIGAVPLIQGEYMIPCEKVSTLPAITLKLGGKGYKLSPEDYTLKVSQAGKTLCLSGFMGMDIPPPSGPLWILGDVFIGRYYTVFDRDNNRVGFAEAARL
BACE2, sequence (Q9Y5Z0 63-518): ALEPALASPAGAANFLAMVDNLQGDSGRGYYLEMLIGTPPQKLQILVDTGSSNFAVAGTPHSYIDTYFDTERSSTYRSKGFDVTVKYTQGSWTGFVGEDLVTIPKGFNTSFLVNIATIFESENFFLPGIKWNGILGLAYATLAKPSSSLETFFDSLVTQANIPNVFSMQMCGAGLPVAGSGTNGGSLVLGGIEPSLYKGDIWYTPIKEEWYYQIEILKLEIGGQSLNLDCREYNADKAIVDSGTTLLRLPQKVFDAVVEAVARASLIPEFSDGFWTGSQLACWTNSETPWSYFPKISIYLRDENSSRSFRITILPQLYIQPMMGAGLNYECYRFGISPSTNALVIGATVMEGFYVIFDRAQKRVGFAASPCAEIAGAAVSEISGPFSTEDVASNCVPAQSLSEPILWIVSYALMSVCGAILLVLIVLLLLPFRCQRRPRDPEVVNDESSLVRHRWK

By IC50 is commonly meant the concentration needed to halve the response being measured. As for `C[C@]1(c2cc(/C=C(\F)c3ccc(C#N)cn3)ccc2F)N=C(N)S[C@@]2(C(=O)N3CCO[C@@H]4C[C@@H]43)C[C@H]21` (single isomer, unassigned) [Example 312], the results for the IC50 in assay [1], in assay [2] (setting [5]) and in assay [3] were 0.0012 µM, 0.0008 µM and 0.068 µM, respectively.

`COc1ncc(/C=C(\F)c2ccc(C#N)cn2)cc1[C@@]1(C)N=C(N)S[C@@]2(C(=O)N3CC[C@@H](F)C3)C[C@H]21` [Example 184, 6-((Z)-2-(5-((1S,5S,6S)-3-amino-1-((R)-3-fluoropyrrolidine-1-carbonyl)-5-methyl-2-thia-4-azabicyclo[4.1.0]hept-3-en-5-yl)-6-methoxypyridin-3-yl)-1-fluorovinyl)nicotinonitrile]: the results for the IC50 in assay [2] (setting [5]), in assay [3] and in assay [4] were 0.014 µM, 0.34 µM and 125 µM, respectively.

Regarding `C[C@]1(c2cc(/C=C(\F)c3cnc(C#N)cn3)ccc2F)N=C(N)S[C@@]2(C(=O)N3CCOCC3)C[C@H]21` [Example 200, 5-((Z)-2-(3-((1S,5S,6S)-3-amino-5-methyl-1-(morpholine-4-carbonyl)-2-thia-4-azabicyclo[4.1.0]hept-3-en-5-yl)-4-fluorophenyl)-1-fluorovinyl)pyrazine-2-carbonitrile], the results for the IC50 in assay [1] and in assay [2] were 0.001 µM and 0.004 µM, respectively.

On to `CNC(=O)[C@]12C[C@H]1[C@@](C)(c1cc(/C=C(\F)c3cc4c(cn3)OCCO4)ccc1F)N=C(N)S2` [Example 249, (1S,5S,6S)-3-amino-5-(5-((Z)-2-(2,3-dihydro-[1,4]dioxino[2,3-c]pyridin-7-yl)-2-fluorovinyl)-2-fluorophenyl)-N,5-dimethyl-2-thia-4-azabicyclo[4.1.0]hept-3-ene-1-carboxamide], for which, in assay [2], the IC50 came to 0.336 µM.

For `C[C@]1(c2cc(/C=C(\F)c3cnc(C#N)cn3)ccc2F)N=C(N)S[C@]2(CO)[C@H]1C2(F)F` [Example 254, 5-((Z)-2-(3-((1S,5S,6R)-3-amino-7,7-difluoro-1-(hydroxymethyl)-5-methyl-2-thia-4-azabicyclo[4.1.0]hept-3-en-5-yl)-4-fluorophenyl)-1-fluorovinyl)pyrazine-2-carbonitrile trifluoromethyl acetate], the IC50 in assay [2] (setting [5]) was 0.0894 µM.

For the compound `C[C@]1(c2cc(/C=C(\F)c3ccc(C#N)cn3)cnc2F)N=C(N)S[C@@]2(C(=O)N3CCC(F)(F)CC3)C[C@H]21` [Example 260, 6-((Z)-2-(5-((1S,5S,6S)-3-amino-1-(4,4-difluoropiperidine-1-carbonyl)-5-methyl-2-thia-4-azabicyclo[4.1.0]hept-3-en-5-yl)-6-fluoropyridin-3-yl)-1-fluorovinyl)nicotinonitrile], the IC50 turned out to be 0.115 µM in assay [3] and 84.1 µM in assay [4].

For `COC[C@]12C[C@H]1[C@@](C)(c1cc(/C=C(\F)c3cnc(Cl)cn3)ccc1F)N=C(N)S2` [Example 261, (1S,5S,6S)-5-(5-((Z)-2-(5-chloropyrazin-2-yl)-2-fluorovinyl)-2-fluorophenyl)-1-(methoxymethyl)-5-methyl-2-thia-4-azabicyclo[4.1.0]hept-3-en-3-amine], the IC50 in assay [3] was found to be 0.08 µM; in assay [4], 357 µM.

Turning to `C#CCOc1cnc(/C(F)=C/c2ccc(F)c([C@@]3(C)N=C(N)S[C@@]4(COC)C[C@H]43)c2)cn1` [Example 262, (1S,5S,6S)-5-(2-fluoro-5-((Z)-2-fluoro-2-(5-(prop-2-yn-1-yloxy)pyrazin-2-yl)vinyl)phenyl)-1-(methoxymethyl)-5-methyl-2-thia-4-azabicyclo[4.1.0]hept-3-en-3-amine], the values for the IC50 in assay [3] and in assay [4] were 0.694 µM and 317 µM, respectively.

With `CC#CCOc1cnc(/C(F)=C/c2ccc(F)c([C@@]3(C)N=C(N)S[C@@]4(COC)C[C@H]43)c2)cn1` [Example 263], the IC50 worked out at 1.84 µM in assay [3] and 492 µM in assay [4].

As for `COC[C@]12C[C@H]1[C@@](C)(c1cc(/C=C(\F)c3cnc(OC[C@H](C)OC)cn3)ccc1F)N=C(N)S2` [Example 265], the IC50 in assay [3] worked out at 3.86 µM; in assay [4], 1320 µM.

As for `COC[C@]12C[C@H]1[C@@](C)(c1cc(/C=C(\F)c3cnc(OCCC(F)(F)F)cn3)ccc1F)N=C(N)S2` [Example 268], the IC50 in assay [3] was found to be 1.55 µM; in assay [4], 245 µM.

On to `COC[C@]12C[C@H]1[C@@](C)(c1cc(/C=C(\F)c3cnc(OCC4CCC4)cn3)ccc1F)N=C(N)S2` [Example 271], for which the IC50 in assay [3] turned out to be 1.84 µM; in assay [4] it was 120 µM.

For the compound `COC[C@]12C[C@H]1[C@@](C)(c1cc(/C=C(\F)c3cnc(OCC4CCO4)cn3)ccc1F)N=C(N)S2` (some centres unmarked) [Example 273], the IC50 was 5.11 µM in assay [3] and 647 µM in assay [4].

For the compound `COC[C@]12C[C@H]1[C@@](C)(c1cc(/C=C(\F)c3cnc(OCc4cc(C)no4)cn3)ccc1F)N=C(N)S2` [Example 276], the values for the IC50 in assay [3] and in assay [4] were 0.966 µM and 156 µM, respectively.

For `COC[C@]12C[C@H]1[C@@](C)(c1cc(/C=C(\F)c3cnc(OC(C)C(F)(F)F)cn3)ccc1F)N=C(N)S2` (some centres unmarked) [Example 277], the IC50 in assay [3] turned out to be 2.42 µM; in assay [4], 207 µM.

As to `COC[C@]12C[C@H]1[C@@](C)(c1cc(/C=C(\F)c3cnc(OCC4CC(F)(F)C4)cn3)ccc1F)N=C(N)S2` [Example 278], the IC50 in assay [3] worked out at 1.32 µM; in assay [4], 199 µM.

For the compound `CN(C)C(=O)[C@]12C[C@H]1[C@@](C)(c1cc(/C=C(\F)c3cnc(OCC(F)(F)F)cn3)cnc1F)N=C(N)S2` [Example 282, (1S,5S,6S)-3-amino-5-(2-fluoro-5-((Z)-2-fluoro-2-(5-(2,2,2-trifluoroethoxy)pyrazin-2-yl)vinyl)pyridin-3-yl)-N,N,5-trimethyl-2-thia-4-azabicyclo[4.1.0]hept-3-ene-1-carboxamide], the IC50 in assay [3] amounted to 0.125 µM; in assay [4], 287 µM.

For `C#CCOc1cnc(/C(F)=C/c2cnc(F)c([C@@]3(C)N=C(N)S[C@@]4(C(=O)O)C[C@H]43)c2)cn1` [Example 285, (1S,5S,6S)-3-amino-5-(2-fluoro-5-((Z)-2-fluoro-2-(5-(prop-2-yn-1-yloxy)pyrazin-2-yl)vinyl)pyridin-3-yl)-5-methyl-2-thia-4-azabicyclo[4.1.0]hept-3-ene-1-carboxylic acid], the IC50 in assay [3] is 6.35 µM; in assay [4], 316 µM.

Turning to `CC(=O)COc1cnc(/C(F)=C/c2cnc(F)c([C@@]3(C)N=C(N)S[C@@]4(C(=O)N(C)C)C[C@H]43)c2)cn1` [Example 288, (1S,5S,6S)-3-amino-5-(2-fluoro-5-((Z)-2-fluoro-2-(5-(2-oxopropoxy)pyrazin-2-yl)vinyl)pyridin-3-yl)-N,N,5-trimethyl-2-thia-4-azabicyclo[4.1.0]hept-3-ene-1-carboxamide], the IC50 in assay [3] was 0.294 µM; in assay [4], 175 µM.

Regarding `C[C@@H]1COCCN1C(=O)[C@]12C[C@H]1[C@@](C)(c1cc(/C=C(\F)c3ccc(C#N)cn3)cnc1F)N=C(N)S2` [Example 290, 6-((Z)-2-(5-((1S,5S,6S)-3-amino-5-methyl-1-((R)-3-methylmorpholine-4-carbonyl)-2-thia-4-azabicyclo[4.1.0]hept-3-en-5-yl)-6-fluoropyridin-3-yl)-1-fluorovinyl)nicotinonitrile], the 50% inhibitory concentration (IC50) in assay [3] is 0.229 µM; in assay [4] it was 400 µM.

As to `COC[C@]12C[C@H]1[C@@](C)(c1cc(/C=C(\F)c3ccc(C#N)cn3)ccc1F)N=C(N)S2` [Example 293, 6-((Z)-2-(3-((1S,5S,6S)-3-amino-1-(methoxymethyl)-5-methyl-2-thia-4-azabicyclo[4.1.0]hept-3-en-5-yl)-4-fluorophenyl)-1-fluorovinyl)nicotinonitrile], the half-maximal inhibitory concentration (IC50) came to 0.0165 µM in assay [1], 0.192 µM in assay [3] and 400 µM in assay [4].

For `C[C@]1(c2cc(/C=C(\F)c3ccc(C#N)cn3)cnc2F)N=C(N)S[C@@]2(C(=O)N3[C@H]4COC[C@@H]3COC4)C[C@H]21` [Example 298, 6-((Z)-2-(5-((1S,5S,6S)-3-amino-1-((1R,5R)-3,7-dioxa-9-azabicyclo[3.3.1]nonane-9-carbonyl)-5-methyl-2-thia-4-azabicyclo[4.1.0]hept-3-en-5-yl)-6-fluoropyridin-3-yl)-1-fluorovinyl)nicotinonitrile], the IC50 in assay [2] is 0.0173 µM.

For the compound `C[C@]1(O)CCN(C(=O)[C@]23C[C@H]2[C@@](C)(c2cc(/C=C(\F)c4ccc(C#N)cn4)ccc2F)N=C(N)S3)C1` [Example 309, 6-((Z)-2-(3-((1S,5S,6S)-3-amino-1-((S)-3-hydroxy-3-methylpyrrolidine-1-carbonyl)-5-methyl-2-thia-4-azabicyclo[4.1.0]hept-3-en-5-yl)-4-fluorophenyl)-1-fluorovinyl)nicotinonitrile], the results for the IC50 in assay [3] and in assay [4] were 0.007 µM and 401 µM, respectively.

Turning to `C[C@]1(c2cc(/C=C(\F)c3cnc(N4CCC4)cn3)ccc2F)N=C(N)S[C@@]2(C(=O)N3CCOCC3)C[C@H]21` [Example 351, ((1S,5S,6S)-3-amino-5-(5-((Z)-2-(5-(azetidin-1-yl)pyrazin-2-yl)-2-fluorovinyl)-2-fluorophenyl)-5-methyl-2-thia-4-azabicyclo[4.1.0]hept-3-en-1-yl)(morpholino)methanone], the IC50 in assay [3] is 1.56 µM; in assay [4], 52.6 µM.

For the compound `CNC(=O)[C@]12C[C@H]1[C@@](C)(c1cc(/C=C(\F)c3ccc(C#CC(C)(C)C)cn3)ccc1F)N=C(N)S2` [Example 359, (1S,5S,6S)-3-amino-5-(5-((Z)-2-(5-(3,3-dimethylbut-1-yn-1-yl)pyridin-2-yl)-2-fluorovinyl)-2-fluorophenyl)-N,5-dimethyl-2-thia-4-azabicyclo[4.1.0]hept-3-ene-1-carboxamide], the IC50 in assay [3] came to 0.794 µM; in assay [4] it was 26 µM.
